From US4364944A, “Cephalosporins” (Dr. Karl Thomae Gesellschaft mit beschrankter Haftung, priority 1980, dated 1982)
Converted amounts (≈) assume the structure as drawn.

Key:
K. pneum. 1082 E = test: Minimum inhibiting concentration, serial dilution test in the microtiter system; format: cell-based; conditions: Klebsiella pneumoniae, 37° C., 18 to 20 hours
Description: (§1) These tests were performed using the serial dilution test in the microtiter system. The effect of the test compound on bacteriostasis was tested in a liquid medium at the following concentrations: 128, 64, 32, 16, 8, 4, 2, 1, 0.5, 0.25, 0.12 and 0.06 μgm/ml. The nutrient medium consisted of 10 gm of peptone, 8 gm of meat extract oxoid, 3 gm of sodium chloride, and 2 gm of sec. sodium phosphate diluted with distilled water to […] (pH 7.2-7.4). The age of the primary cultures was approximately 20 hours. The standardization of the bacteria suspension was effected using a photometer according to the method of Eppendorf (test tube .phi. 14 mm, filter 546 nm), using for comparison a barium sulfate suspension formed by the addition of 3.0 ml of 1% barium chloride solution to 97 ml of 1% sulfuric acid. After standardization, the test microorganisms were further diluted to a concentration of 1:1500, using a sodium chloride solution.
(§2) 16 mgm of the particular test compound were put into a 10 ml measuring flask, and the flask was subsequently filled to the mark with the solvent. The further dilution series was standardized with distilled water or the appropriate solvent.
(§3) The depressions of the microtiter plates were filled with 0.2 ml of nutrient medium. 0.01 ml of the appropriate test compound solution was then added, followed by inoculation with 0.1 ml (1 drop) of the standardized bacteria suspension. The bacteria were incubated at 37° C. for 18 to 20 hours. Control tests using only the solvent were carried out simultaneously.
(§4) The readings were made macroscopically to determine the minimum inhibitory concentration (the lowest still bacteriostatically effective concentration).

Staph. aureus SG 511 = test: as above; format: cell-based; conditions: Staphylococcus aureus, SG511, 37° C., 18 to 20 hours
Description: as §1, §2, §3, §4
(§5) Staphylococcus aureus SG 511, Escherichia coli ATCC 11 775, Pseudomonas aeruginosa hamburgensis and Pseudomonas aeruginosa BC 19, Serratia marcescens ATCC 13 800, Klebsiella pneumoniae ATCC 10031 and BC 6, Proteus mirabilis BC 17, Proteus rettgeri BC 7, Enterobacter Cloaceae ATCC 13047 and E. coli R+TEM (β-lactamase carrier).

Prot. mirab. BC 17 = test: as above; format: cell-based; conditions: Proteus mirabilis, 37° C., 18 to 20 hours
Description: as §1, §2, §3, §4, §5

Pseud. BC 19 = test: as above; format: cell-based; conditions: Pseudomonas aeruginosa, 37° C., 18 to 20 hours
Description: as §1, §2, §3, §4, §5

Kl. pneum. BC 6 = test: as above; format: cell-based; conditions: Klebsiella pneumoniae, 37° C., 18 to 20 hours
Description: as §1, §2, §3, §4, §5

E. coli ATCC 11775 [1] = test: as above; format: cell-based; conditions: Escherichia coli, ATCC11775, 37° C., 18 to 20 hours
Description: as §1, §2, §3, §4, §5

[2] = tested on: Serr. marcesc. ATCC 13880; test: as above; format: cell-based; conditions: Serratia marcescens, ATCC13880, 37° C., 18 to 20 hours
Description: as §1, §2, §3, §4, §5

E. coli R + TEM = test: as above; format: cell-based; conditions: Escherichia coli, read-out: Minimum inhibiting concentration (MIC)
Description: as §1, §2, §3, §4, §5

Kl. pneum. ATCC 10031 = test: as above; format: cell-based; conditions: Klebsiella pneumoniae, ATCC10031, 37° C., 18 to 20 hours
Description: as §1, §2, §3, §4, §5

Pseud. Hbg. = test: as above; format: cell-based, Pseudomonas aeruginosa hamburgensis; conditions: Pseudomonas aeruginosa, 37° C., 18 to 20 hours
Description: as §1, §2, §3, §4, §5

Prot. rettg. = test: as above; format: cell-based, Proteus rettgeri; conditions: Providencia rettgeri, 37° C., 18 to 20 hours
Description: as §1, §2, §3, §4, §5

E. coli ATCC 11775 [3] = test: In vivo activity against experimental E. coli infection in mice; parameters: species or system E. coli in female mice of the NMRI strain; conditions: Escherichia coli, ATCC11775, sc, 168 h; s.c. administration once, 1 hour after i.p. infection; dose at which 50% of the animals survive; 7 days
Description: A few compounds of the invention and cefuroxim were tested in vivo against experimental infections in mice. E. coli ATCC 11775 was used as the pathogenic bacteria. An intraperitoneal infection was induced with 0.2 ml of a 5% mucin suspension of the bacteria. This corresponds to approximately 1.4×10^6 E. coli bacteria per mouse. Female mice of the NMRI strain were divided into groups of 10 animals, of which 2 groups remained untreated while the remaining groups were treated with various doses of the particular cephalosporin according to the invention for the purpose of determining the ED50 (dose at which 50% of the animals survive). The treatment was applied once (1 hour after infection). The observation period was 7 days. The results of these tests are shown in Table III below, where the numbering of the compounds again corresponds to that used in Table I.

Ent. cloac. ATCC 13047 = test: Minimum inhibiting concentration, serial dilution test in the microtiter system; format: cell-based, Enterobacter Cloaceae; conditions: Enterobacter, ATCC13047, 37° C., 18 to 20 hours
Description: as §1, §2, §3, §4, §5

| SMILES | MIC (K. pneum. 1082 E) [µg/mL] | MIC (Staph. aureus SG 511) [µg/mL] | MIC (Prot. mirab. BC 17) [µg/mL] | MIC (Pseud. BC 19) [µg/mL] | MIC (Kl. pneum. BC 6) [µg/mL] | MIC (E. coli ATCC 11775 [1]) [µg/mL] | MIC [2] [µg/mL] | MIC (E. coli R + TEM) [µg/mL] | MIC (Kl. pneum. ATCC 10031) [µg/mL] | MIC (Pseud. Hbg.) [µg/mL] | MIC (Prot. rettg.) [µg/mL] | ED50 (E. coli ATCC 11775 [3]) [mg/kg] | MIC (Ent. cloac. ATCC 13047) [µg/mL] |
| --- | --- | --- | --- | --- | --- | --- | --- | --- | --- | --- | --- | --- | --- |
| Cn1nnnc1SCC1=C(C(=O)O)N2C(=O)[C@@H](NC(=O)C(NC(=O)Nc3cnc(NCc4ccco4)nc3O)c3csc(N)n3)[C@H]2SC1 (some centres unmarked) [Compound 1] | 16 (≈ 22.4 µM) | 1 (≈ 1.4 µM) | 0.01 (≈ 0.014 µM) | 16 (≈ 22.4 µM) | 0.03 (≈ 0.0419 µM) | 0.03 (≈ 0.0419 µM) | 0.06 (≈ 0.0838 µM) | 0.5 (≈ 0.699 µM) | 0.06 (≈ 0.0838 µM) | 16 (≈ 22.4 µM) | 0.06 (≈ 0.0838 µM) | 0.8 | 0.25 (≈ 0.349 µM) |
| CO/N=C(\C(=O)N[C@@H]1C(=O)N2C(C(=O)O)=C(COC(N)=O)CS[C@H]12)c1ccco1 [Cefuroxim, reference compound] |  | 1 (≈ 2.36 µM) | 0.5 (≈ 1.18 µM) | > 128 | 4 (≈ 9.43 µM) | 8 (≈ 18.9 µM) | 8 (≈ 18.9 µM) | 4 (≈ 9.43 µM) | 2 (≈ 4.71 µM) | > 128 | 2 (≈ 4.71 µM) | > 100 | 32 (≈ 75.4 µM) |
| CO[C@@]1(NC(=O)C(NC(=O)Nc2cnc(NCc3ccco3)nc2O)c2ccccc2)C(=O)N2C(C(=O)O)=C(CSc3nnnn3C)CS[C@@H]21 (some centres unmarked) [Compound 14] | 0.25 (≈ 0.345 µM) | 0.5 (≈ 0.691 µM) | 0.12 (≈ 0.166 µM) | 8 (≈ 11.1 µM) | 0.25 (≈ 0.345 µM) | 0.12 (≈ 0.166 µM) | 0.25 (≈ 0.345 µM) | 0.25 (≈ 0.345 µM) | 0.25 (≈ 0.345 µM) | 8 (≈ 11.1 µM) | 1 (≈ 1.38 µM) | 2.5 to 5 | 1 (≈ 1.38 µM) |
| Cn1nnnc1SCC1=C(C(=O)O)N2C(=O)[C@@H](NC(=O)C(NC(=O)Nc3cnc(NCc4ccc(S(N)(=O)=O)s4)nc3O)c3csc(N)n3)[C@H]2SC1 (some centres unmarked) [Compound 4] | 8 (≈ 9.87 µM) | 1 (≈ 1.23 µM) | 0.01 (≈ 0.0123 µM) | 8 (≈ 9.87 µM) | 0.03 (≈ 0.037 µM) | 0.01 (≈ 0.0123 µM) | 0.06 (≈ 0.074 µM) | 0.25 (≈ 0.308 µM) | 0.03 (≈ 0.037 µM) | 16 (≈ 19.7 µM) | 0.01 (≈ 0.0123 µM) | < 0.5 | 0.06 (≈ 0.074 µM) |
| Nc1nc(C(NC(=O)Nc2cnc(NCc3ccc(S(N)(=O)=O)s3)nc2O)C(=O)N[C@@H]2C(=O)N3C(C(=O)O)=C(CSc4nnnn4CCO)CS[C@H]23)cs1 (some centres unmarked) [Compound 6] | 16 (≈ 19 µM) | 1 (≈ 1.19 µM) | 0.03 (≈ 0.0357 µM) | 8 (≈ 9.51 µM) | 0.03 (≈ 0.0357 µM) | < 0.03 | 0.06 (≈ 0.0713 µM) | 0.5 (≈ 0.595 µM) | 0.06 (≈ 0.0713 µM) | 16 (≈ 19 µM) | 0.06 (≈ 0.0713 µM) | < 0.5 | 0.06 (≈ 0.0713 µM) |
| CO[C@@]1(NC(=O)C(NC(=O)Nc2cnc(NCc3ccc(S(N)(=O)=O)s3)nc2O)c2ccccc2)C(=O)N2C(C(=O)O)=C(CSc3nnnn3C)CS[C@@H]21 (some centres unmarked) [Compound 11] | 0.25 (≈ 0.305 µM) | 1 (≈ 1.22 µM) | 0.06 (≈ 0.0733 µM) | 8 (≈ 9.77 µM) | 0.25 (≈ 0.305 µM) | 0.12 (≈ 0.147 µM) | 0.25 (≈ 0.305 µM) | 0.25 (≈ 0.305 µM) | 0.25 (≈ 0.305 µM) | 16 (≈ 19.5 µM) | 0.5 (≈ 0.611 µM) | ~5 | 0.5 (≈ 0.611 µM) |
